According to PubChem BioAssay (NCI):
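Results reflect a 48-hour exposure of cells in 96-well plates to compound at five concentrations. GI50 marks 50% less growth. TGI: total growth inhibition.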

Key:
Assay in all cases: NCI tumour cell line growth inhibition, 48 h
[1] = system: RXF-631 renal
[2] = system: DLD-1 colon
[3] = system: LXFL 529 NSCLC
[4] = system: M19-MEL melanoma
[5] = system: KM20L2 colon
[6] = system: XF 498 CNS
[7] = system: DMS 273 small cell lung
[8] = system: HOP-18 NSCLC
[9] = system: MDA-N

| Structure (SMILES) | TGI [2] [µM] | TGI [3] [µM] | TGI [4] [µM] | TGI [5] [µM] | TGI [6] [µM] | TGI [7] [µM] | TGI [8] [µM] | other results |
| --- | --- | --- | --- | --- | --- | --- | --- | --- |
| O=C(Nc1nc2ccc([N+](=O)[O-])cc2s1)C(=O)C(C1OC(=O)c2ccccc21)[N+](=O)[O-] (stereo not given) | > 100 | > 100 | > 100 | > 100 | > 100 |  |  | TGI [1]: > 100 µM |
| CCC[CH2][Sn]([CH2]CCC)([S]c1cccc2cccnc12)[S]c1cccc2cccnc12 | 0.382 | 0.163 | 0.587 | 0.474 | 0.26 | 0.432 | 0.605 | GI50 [2]: 0.172 µM; GI50 [3]: 0.039 µM; GI50 [4]: 0.216 µM; GI50 [7]: 0.177 µM; GI50 [8]: 0.264 µM; GI50 [5]: 0.215 µM; GI50 [6]: 0.101 µM |
| Cc1cc(N(CCC#N)CCC#N)ccc1N=Nc1ccc(S(N)(=O)=O)cc1 | > 100 | > 100 |  |  | > 100 | > 100 | > 100 | TGI [1]: > 100 µM |
| CNC(=S)OCCC(C)CCCC(C)C (stereo not given) | 28.9 | 30.4 | 34.9 | 30 | 31.1 | 30.7 | 31.3 |  |
| COc1ccc(CC2c3cc4c(cc3CCN2C)OCO4)c(C=O)c1OC (stereo not given) |  |  |  |  |  |  |  | TGI [9]: > 100 µM |
| O=[N+]([O-])c1ccc2c(c1)/C(=N/N=C1c3ccccc3Cc3ccccc31)c1cc([N+](=O)[O-])cc([N+](=O)[O-])c1-2 |  |  |  |  |  |  |  | TGI [9]: 9.38 µM |
| NC(=O)NO.O.O.O.O.O.O.O.O.O.O.O.[Ge].[Ge].[Ge].[Ge].[Ge].[O]=[Ge].[O]=[Ge].[O]=[Ge].[O]=[Ge].[O]=[Ge][OH] | > 100 | > 100 | > 100 | > 100 | > 100 | > 100 | > 100 |  |
| CCCCCCCCCCCC(=O)OCCOCCOCCOCCOCCOCc1ccccc1 | > 100 | > 100 | > 100 | > 100 |  | > 100 | > 100 |  |
| NC(N)=NS(=O)(=O)c1ccc(Nc2c3ccccc3nc3c(C(=O)NCCO)cccc23)cc1 |  |  |  |  |  |  |  | GI50 [9]: 17.8 µM |
| CCN(CC)CCSc1c2ccccc2nc2cc(NCC(=O)Nc3ccccc3-c3ccccc3NC(=O)CNc3ccc4c(SCCN(CC)CC)c5ccccc5nc4c3)ccc12 | > 100 | > 100 | > 54.7 | > 100 | > 100 | > 58.3 | > 100 | TGI [1]: > 100 µM |
| Fc1ccc(NC(=S)SCc2ccc3c(c2)OCO3)cc1F |  |  |  |  |  |  |  | TGI [9]: 34.7 µM |
| O=C(CCc1nc(=S)[nH][nH]1)Nc1cc(Cl)c(Cl)cc1Cl |  | > 100 | > 100 | > 100 | > 100 | > 100 |  | TGI [1]: > 100 µM |
| CCOC(=O)Cn1c(C(F)(F)F)nc2nc(Cl)c(Cl)nc21 |  |  |  |  |  |  |  | TGI [9]: > 100 µM |
| Cc1c(C(=O)CC(=O)C(=O)Nc2ccccc2C(F)(F)F)[n+](=O)c2ccccc2n1[O-] |  | 62.1 |  | 92.3 | 42 | 59.9 | 37 |  |
| CO/C(=N\N=C\c1ccc(C(F)(F)F)cc1)c1ccncc1 |  |  |  |  |  |  |  | TGI [9]: > 10 µM |
| CC(C)=CCC\C(C)=C/C=C/C(C)=C\C=C\C(C)=C/C=C/C=C(C)\C=C\C=C(C)/C=C/C=C(/C)CCC=C(C)C |  |  |  |  |  |  |  | TGI [9]: > 100 µM |
| COc1ccccc1N1C(=O)C2c3[nH]c4ccccc4c3C3CCC(C(C)(C)C)CC3C2C1=O (stereo not given) | > 100 | > 100 | > 100 | > 100 | > 100 | > 100 | > 100 |  |
| Cc1ccc(S(=O)(=O)OC[C@@H]2CO2)cc1 | > 100 | > 100 | > 100 | > 100 |  | > 100 | > 100 | TGI [1]: > 100 µM |
| Nc1ccccc1S(=O)(=O)N(CC(=O)O)c1ccccc1 | > 100 | > 100 | > 100 | > 100 | > 100 | > 100 | > 100 | TGI [1]: > 100 µM |
| NC1=NCCC1(c1ccccc1)c1ccccn1 (stereo not given) |  | > 100 | > 100 | > 100 | > 100 | > 100 | > 100 |  |
| OCC1=CC(NC2CC(CO)C(O)C(O)C2O)C(O)C(O)C1O (stereo not given) | > 100 |  | > 100 |  | > 100 | > 100 | > 100 |  |
| COc1cc2c(c3oc4c(O)cccc4c(=O)c13)CC(C(C)(O)CO)O2 (stereo not given) |  |  |  |  |  |  |  | TGI [9]: > 100 µM |
| CCOC(=O)CCC1(C(=O)OCC)CCCCC1=O (stereo not given) | > 100 | > 100 | > 100 | > 100 | > 100 | > 100 | > 100 |  |
| CN(C)N=Nc1ccc(C(N)=O)cc1 | > 100 | > 100 | > 100 | > 100 | > 100 | > 100 | > 100 |  |
